{"source": "patent US7759392B2", "about": "“Pharmaceutical compounds” (Nicox S.A., priority 1999, dated 2010)", "key": {"[1]": {"assay_type": "biochemical", "experimental": "Test 5 is a […] test wherein 0.1 ml aliquots of 10^−4 M methanolic solutions of the tested products are added to test tubes containing a solution formed by 0.2 ml of 2 mM deoxyribose, 0.4 ml of phosphate buffer pH 7.4 100 mM and 0.1 ml of 1 mM Fe^II(NH4)2(SO4)2 in 2 mM HCl. The test tubes are then maintained at 37° C. for one hour. Then in each test tube 0.5 ml of a 2.8% solution in trichloroacetic acid water and 0.5 ml of an aqueous 0.1 M solution of thiobarbituric acid are added, in the order. A reference blank is formed by adding to a test tube containing only the above described aqueous solution of reactants 0.1 ml of methanol. […] A pink coloration is developed the intensity of which is proportional to the quantity of deoxyribose undergone to radical oxidative degradation. The solutions are cooled at room temperature and their absorbances are read at 532 nm against the blank. The inhibition induced by the precursor of B or B1 or C=-Tc-Y—H in the confront of radical production by Fe^II is determined by means of the following formula: (1−As/Ac)×100 wherein As and Ac are respectively the absorbance values of the solution containing the tested compound+the iron salt and that of the solution containing only the iron salt, the compound meets test 5 when the inhibition percentage of radical production as above defined from the precursor of B is higher than or equal to 50%. […]"}, "[2]": {"test_system": "human endothelial cells of the umbilical vein", "assay": "Test 2 (CIP): apoptosis (DNA fragmentation) induced by cumene hydroperoxide in endothelial cells", "assay_type": "cell-based", "conditions": "drug 10^-4 M; CIP 5 mM", "experimental": "Test 2 (CIP): Protection parameter of endothelial cell against the oxidative stress induced by cumene hydroperoxide (CIP).\nHuman endothelial cells of the umbilical vein are prepared according to an usual standard procedure. Fresh umbilical veins are filled with a 0.1% by weight collagenase solution and incubated at 37° C. for 5 minutes.\nThe cells are collected from the perfusate by centrifugation and harvested in culture flasks T-75, pretreated with human fibronectin. The cells are then harvested in the same medium, further added with 10 ng/ml of bovine hypothalamic growth factor. When the cells of the primary cell culture (i.e. that directly obtained from ex-vivo) form a single layer of confluent cells (about 8,000,000 cells/flask), the culture is stopped and the layers washed and trypsinized. The cellular suspensions are transferred into the wells of a cell culture plate having 24 wells, half of which is then additioned with the same culture medium containing the drug at a 10^−4M concentration, and harvested in a thermostat at 37° C. at a constant moisture. Only the cells coming from said first sub-cultures are used for the experiments with cumene hydroperoxide (CIP).\nBefore starting the test, the cellular culture medium is removed and the cellular layers are carefully washed with a physiologic solution at a temperature of 37° C. The wells of the culture plate are then incubated for one hour with CIP at a 5 mM concentration in the culture medium. […] 5 replicates for each sample are carried out.\nHuman endothelial cells of the umbilical vein are prepared according to a standard method. Fresh umbilical veins are filled with a collagenase solution 0.1% by weight and incubated at 37° C. for 5 minutes.\nThe cells are collected from the perfusate by centrifugation at 800 rpm and harvested in culture flasks T-75, pretreated with human fibronectin. Cells are then harvested in the same medium, added with bovine hypothalamic growth factor (100 ng/ml). When the cells of the primary cell culture (the cells directly removed from ex-vivo umbilical vein) form a single layer of confluent cells (about 8,000,000 cells/flask), harvesting is stopped and the layers are washed and trypsinized. The cellular suspensions are transferred into wells of a culture plate having 24 wells, half of said wells being added with the same culture medium containing the drug at a 10^−4M concentration, and harvested in a thermostat at 37° C. at a constant moisture (90%), CO2=5%. When the drug is not soluble in the culture medium, it is formerly dissolved in a small amount of dimethylsulphoxide. The maximum amount of dimethylsulphoxide which can be added to the culture medium is 0.5%. Only the cells coming from these first subcultures are used for the tests with cumene hydroperoxide (CIP).\nBefore starting the test, the cellular culture medium is removed and the cellular layers are carefully washed with a standard physiologic solution buffered with phosphate 0.1 M pH 7.0, at the temperature of 37° C. The content of each well is then incubated for one hour with a CIP suspension in the culture medium at a 5 mM concentration. Evaluation of the cellular damage (apoptosis) is carried out by determining the percent variation of the DNA fragmentation in the cultures containing the drug+CIP with respect to the controls treated with CIP only. […] The fluorescence of each sample was determined on 5 replicates. Statistic evaluation has been made with t Student test (p<0.01)."}, "[3]": {"test_system": "human endothelial cells of the umbilical vein", "assay": "Experiment F6: apoptosis (DNA fragmentation) induced in endothelial cells by hydrogen peroxide", "assay_type": "cell-based", "conditions": "Endothelial cell, products 100 mmoles/l, hydrogen peroxide 200 mmoles/l, 18 hours, read-out: Apoptosis % (respect to the controls treated only with CIP)", "description": "It has been Evaluated the Activity of Some of the Compounds Object of the Present Invention and of the Corresponding Precursor Drugs in Inhibiting DNA Degradation (Apoptosis) in Endothelial Cells Exposed to the Action of Hydrogen Peroxide (HP)\nHydrogen peroxide is a mild oxidant and is considered as an essential mediating agent in pathologies associated with oxidative stress (B. Halliwell, J. Gutteridge “Free Radicals in Biology and Medicine”, page 416, 1993). Therefore the pharmacological activity of compounds to be used under oxidative stress conditions is evaluated through their capability of neutralizing the cytolesive effects of the hydrogen peroxide (B. Halliwell, J. Gutteridge “Free Radicals in Biology and Medicine”, page 416, 1993).\nThe method described by Herman et Al. (Herman C., Zeiner M. A., Dimmeler S., Arterioscler. Thromb. Vasc. Biol. 17 (12), 3588-82, 1997).\nHuman endothelial cells of the umbilical vein are prepared according to a standard method. Fresh umbilical veins, just removed, are filled with a solution of collagenase at 0.1% and incubated at 37° C. for 5 minutes.\nSubsequently the veins are perfused with medium M 199 (GIBCO, Grand Island, N.Y.) pH 7.4 containing 20% of human serum. The cells are collected from the perfusate by centrifugation at 800 rpm and harvested in culture flasks T-75, pretreated with human fibronectin. […]"}, "gastrointestinal mucosa": {"test_system": "gastrointestinal mucosa", "conditions": "male, Wistar, rat, in vivo, 6 h", "experimental": "Gastric lesions induced by administration of the compounds of the invention in the confront of the corresponding drug precursor.\nThe animals have been sacrificed 6 hours after the administration. The gastrointestinal mucosa has been removed and inspected. The incidence of the gastrointestinal damage has been evaluated as described in experiment F1."}, "erythrocytes": {"test_system": "erythrocytes", "assay": "Test 4A: inhibition of erythrocyte haemolysis induced by cumene hydroperoxide", "conditions": "2 mM, preincubated 30 minutes; cumene hydroperoxide 270 μM; at Tmax"}, "[4]": {"test_system": "acetic acid mouse writhing", "assay": "Acetic acid mouse writhing", "assay_type": "in vivo", "experimental": "(§1) Antiinflammatory and analgesic activity have been measured according to carrageenan rat paw edema and acetic acid mouse writhing methods.\nExperiments were conducted as described by Moore et al. (Br. J. Pharmacol. 102, 198-202 1990). The compounds were given orally 15 minutes prior to intraperitoneal acetic acid (2% w/v in saline pH 2.7, 10 ml/Kg). Mice were transferred immediately to individual observation cages and the number of abdominal constrictions monitored over the following 30 minutes. At the end of the observation period the animals were killed by cervical dislocation and exsanguination. Results are expressed as the number of abdominal constrictions (writhings) per 30 minutes test period, expressed as percentage to those observed in the control group, and are reported in Table IX."}, "liver": {"test_system": "liver", "assay": "Example F10: liver safety (AST, ALT, glutathione, bilirubin)", "assay_type": "in vivo, rat", "conditions": "rats, 6 hours; for AST %: i.p. (NO-paracetamol 1.4 g/Kg, paracetamol 1.16 g/Kg); for AST % / ALT % / Bilirubin % / Glutathione %: % of vehicle group; for ALT % / Bilirubin % / hepatic damage (in words) / Glutathione %: i.p.; for Glutathione %: liver glutathione", "experimental": "After 6 hours the animals were killed by cervical dislocation, trunk blood collected and plasma analysed for aspartate aminotransferase (AST) and alanine aminotransferase (ALT) activity, liver glutathione and bilirubin concentration."}, "[5]": {"test_system": "carrageenan rat paw edema", "assay": "Carrageenan rat paw edema", "assay_type": "in vivo", "conditions": "for Antiinflammatory activity % paw edema inhibition: rat, intraperitoneally prior to carrageenan, 3 h", "experimental": "as §1\nExperiments were conducted as described by Al-Swayeh et al., Brit. J. Pharmacol. 129, 343-350 2000). Hind paw volume was determined by plethysmography before and after 3 h after interplantar carrageenan injection (100 microliter, 2% w/v). The compounds were given intraperitoneally […] prior to carrageenan injection. At the end of the experiment animals were killed by cervical dislocation and exsanguination. The Results shown in Table IX are expressed as % of paw edema inhibition, i.e. the paw volume of the controls (vehicle) subtracted of the paw volume of the treated and the obtained difference divided by the paw volume of the controls."}}, "note": "Entries after “also recorded” stand apart in the source; their conditions may differ. Read-outs that look alike come from different tables or passages of the source.", "data": [{"smiles": "OCCCCO", "note": "[1,4-Butandiol]", "values": [{"measurement": "% Radical inhibition from Fe^II", "setting": "[1]", "result": 0, "unit": "%"}]}, {"smiles": "NCCCC(O)(P(=O)(O)O)P(=O)(O)O", "note": "[Alendronate, sodic alendronate]", "values": [{"measurement": "inhibition of apoptosis induced by CIP (in words, p<0.01)", "setting": "[2]", "result": "do not significantly inhibit apoptosis"}, {"measurement": "activity at 100000 µM", "setting": "[3]", "result": 18, "unit": "%"}, {"measurement": "Gastropathy % incidence", "setting": "gastrointestinal mucosa", "result": 100, "unit": "%"}]}, {"smiles": "OCCOCCO", "note": "[Diethylenglycol]", "values": [{"measurement": "% Radical inhibition from Fe^II", "setting": "[1]; 10^-4 M methanolic solution, 37° C. one hour, absorbance 532 nm", "result": 0, "unit": "%"}, {"measurement": "% Haemolysis inhibition", "setting": "erythrocytes", "result": 33.4, "unit": "%"}]}, {"smiles": "CC(=O)Nc1ccc(OC(=O)CCCO[N+](=O)[O-])cc1", "note": "[Example 1, 4-nitroxybutyric acid 4′-acetylamino phenyl ester]", "values": [{"measurement": "analgesic activity compared with paracetamol (in words)", "setting": "[4]; acetic acid writhing", "result": "much more active in both tests than paracetamol"}, {"measurement": "AST %", "setting": "liver", "result": 160, "unit": "%"}, {"measurement": "ALT %", "setting": "liver", "result": 57, "unit": "%"}, {"measurement": "Bilirubin %", "setting": "liver", "result": 136, "unit": "%"}, {"measurement": "hepatic damage (in words)", "setting": "liver; listed as NO-paracetamol", "result": "much lower increases of AST and ALT; also recorded: the bilirubin concentration is lower than that in the control groups; also recorded: able to spare the liver"}, {"measurement": "Glutathione %", "setting": "liver", "result": 49, "unit": "%"}, {"measurement": "antiinflammatory activity compared with paracetamol (in words)", "setting": "[5]; carrageenan paw edema", "result": "much more active in both tests than paracetamol"}, {"measurement": "Antiinflammatory activity % paw edema inhibition", "setting": "[5]", "result": 69, "unit": "%"}]}, {"smiles": "CC(=O)Nc1ccc(O)cc1", "note": "[Paracetamol, paracetamol]", "values": [{"measurement": "inhibition of apoptosis induced by CIP (in words, p<0.01)", "setting": "[2]", "result": "do not significantly inhibit apoptosis; also recorded: not significantly different with respect to that of the controls"}, {"measurement": "Analgesic activity % writhing inhibition", "setting": "[4]; mice, orally 15 minutes prior to intraperitoneal acetic acid, 30 minutes", "result": 40, "unit": "%"}, {"measurement": "AST %", "setting": "liver", "result": 330, "unit": "%"}, {"measurement": "hepatic damage (in words)", "setting": "liver", "result": "causes hepatic damage"}, {"measurement": "ALT %", "setting": "liver", "result": 171, "unit": "%"}, {"measurement": "Bilirubin %", "setting": "liver", "result": 200, "unit": "%"}, {"measurement": "Glutathione %", "setting": "liver", "result": 52, "unit": "%"}, {"measurement": "Antiinflammatory activity % paw edema inhibition", "setting": "[5]", "result": 34, "unit": "%"}]}]}
